Measurements taken from patent publication US8343458B2, “Probes for in vivo targeting of active cysteine proteases” (The Board of Trustees of the Leland Stanford Junior …, priority 2008, dated 2013).

System: thymus tissue undergoing apoptosis
Assay: Tissue uptake in dexamethasone apoptosis mouse model
Assay type: in vivo
Conditions: dexamethasone-treated mice, 125I-labeled probe, radioactivity over time
Description: Graphs are for thymus, blood, muscle and liver.
Distribution studies were done in mice that were treated with dexamethazone (IP injection) to induce apoptosis in the thymus. This animal model is further described, e.g., in Casteels et al. “Sex Difference in Resistance to Dexamethasone-Induced Apoptosis in NOD Mice,” Diabetes, 47:1033-1037, 1998. AB53 was labeled with ^125I at the nitrophenol capping group.
Referring now to FIG. 6, data for the uptake of the probe in different tissues was obtained. Presented there are four graphs, one for thymus (FIG. 6A), one for blood (FIG. 6B) one for muscle (FIG. 6C) and one for liver (FIG. 6D), showing data from the in vivo uptake studies with ^125I-AB53. Graphs plot radioactivity as percent of initial dose/g of tissue from ^125I measured in different organs over time.

## Cc1cccc(C)c1C(=O)OCC(=O)[C@H](CC(=O)O)NC(=O)C1CCCN1C(=O)[C@H](Cc1ccc(-c2ccccc2)cc1)NC(=O)Cc1ccc([N+](=O)[O-])c(O)c1 (stereo partly shown) [AB53]
  Probe uptake in thymus: accumulates specifically in the thymus tissue that is undergoing apoptosis
